In ChEMBL document CHEMBL4602733 (J Med Chem, 2020):
One block for each compound: values may come before it.

How the values were obtained:
[1] = target: T1, Histamine H3 receptor (Homo sapiens, UniProt Q9Y5N1); design: species or system Sf9
[2] = target: T1, Histamine H3 receptor; assay: Inhibition of UR-DEBa242 binding to human recombinant NLuc/GPCR-fused H3R expressed in HEK293T cells measured after 30 mins by furimazine substrate based BRET assay; assay type: cell-based, HEK-293T
[3] = target: T1, Histamine H3 receptor; design: species or system Sf9; remark: listed apart in the source
[4] = target: T2, Histamine H4 receptor (Homo sapiens, UniProt Q9H3N8); design: species or system Sf9
[5] = organism: Homo sapiens; design: reference not given here
[6] = target: T2, Histamine H4 receptor; design: species or system Sf9; remark: listed apart in the source
[7] = target: T1, Histamine H3 receptor; design: species or system Sf9; remark: listed apart in the source
[8] = target: T3, Histamine H4 receptor (Mus musculus, UniProt Q91ZY2); assay: Inhibition of UR-DEBa242 binding to mouse recombinant NLuc/GPCR-fused H4R expressed in HEK293T cells measured after 30 mins by furimazine substrate based BRET assay; assay type: cell-based, HEK-293T
T3 sequence (Q91ZY2 whole entry): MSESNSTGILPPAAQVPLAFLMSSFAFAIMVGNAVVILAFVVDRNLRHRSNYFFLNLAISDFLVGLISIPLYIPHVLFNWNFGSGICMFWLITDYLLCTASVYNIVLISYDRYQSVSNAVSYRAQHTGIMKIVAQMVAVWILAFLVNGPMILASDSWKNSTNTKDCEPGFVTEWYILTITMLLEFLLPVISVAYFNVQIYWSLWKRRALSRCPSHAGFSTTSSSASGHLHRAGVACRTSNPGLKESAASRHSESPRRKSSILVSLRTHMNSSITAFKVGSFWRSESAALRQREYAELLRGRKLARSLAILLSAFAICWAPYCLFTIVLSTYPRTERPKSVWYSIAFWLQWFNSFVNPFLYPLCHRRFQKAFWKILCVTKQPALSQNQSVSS

[9] = target: T3, Histamine H4 receptor; assay: Displacement of UR-DEBa176 from mouse recombinant H4R expressed in HEK293T-SF-His6-CRE-Luc cells; assay type: cell-based
[10] = target: T3, Histamine H4 receptor; assay: Antagonist activity at mouse H4R expressed in HEK293 cells co-expressing ELucC/ELucN-beta-arrestin2 assessed as inhibition of histamine-induced beta-arrestin recruitment preincubated for 15 mins followed by histamine addition by luciferase reporter gene assay; assay type: cell-based
[11] = target: Histamine H1 receptor (Homo sapiens, UniProt P35367); assay: Displacement of [3H]pyrilamine from human recombinant H1R expressed in baculovirus infected Sf9 insect cell membranes co-expressing RGS4
[12] = target: T1, Histamine H3 receptor; assay: Antagonist activity at human H3R expressed in HEK293T-SP-FLAG-hH3R-CRE-CBR cells assessed as reduction in histamine-induced inhibition of forskolin stimulated luciferase activity preincubated for 15 mins followed by forskolin and histamine addition by luciferase reporter gene assay; assay type: functional, cell-based
[13] = target: T1, Histamine H3 receptor; assay: Binding affinity to human recombinant NLuc/GPCR-fused H3R expressed in HEK293T cells measured after 30 mins by furimazine substrate based BRET assay; assay type: cell-based, HEK-293T
[14] = Chemical stability of the compound in pH 7.4 phosphate buffered saline at 200 uM incubated for 5 to 6 hrs in white 96-well cellGrade plates by RP-HPLC method; assay type: physicochemical; conditions: buffer, pH 7.4, 200 µM
[15] = Drug uptake in wild-type HEK293T cells at 200 nM measured after 20 mins by confocal microscopic analysis; assay type: ADME, cell-based; conditions: human, hek-293t, 0.2 µM
[16] = target: T1, Histamine H3 receptor; assay: Binding affinity to human recombinant NLuc/GPCR-fused H3R expressed in HEK293T cells assessed as dissociation constant measured after 30 mins in presence of thioperamide by furimazine substrate based BRET assay; assay type: cell-based, HEK-293T
[17] = target: T1, Histamine H3 receptor; assay: Binding affinity to human recombinant NLuc/GPCR-fused H3R expressed in HEK293T cells assessed as association rate constant measured after 30 mins by furimazine substrate based BRET assay; assay type: cell-based; conditions: HEK-293T
[18] = target: T1, Histamine H3 receptor; assay: Binding affinity to human recombinant NLuc/GPCR-fused H3R expressed in HEK293T cells assessed as dissociation rate constant measured after 30 mins in presence of thioperamide by furimazine substrate based BRET assay; assay type: cell-based; conditions: HEK-293T
[19] = target: T1, Histamine H3 receptor; assay: Binding affinity to human recombinant NLuc/GPCR-fused H3R expressed in HEK293T cells assessed as dissociation half life measured after 30 mins in presence of thioperamide by furimazine substrate based BRET assay; assay type: cell-based; conditions: HEK-293T
[20] = target: T1, Histamine H3 receptor; assay: Agonist activity at human H3R expressed in HEK293T-SP-FLAG-hH3R-CRE-CBR cells incubated for 5 hrs by luciferase reporter gene assay; assay type: functional, cell-based
[21] = Chemical stability of the compound in pH 7.4 phosphate buffered saline at 200 uM incubated for >= 1 hr in Sigmacote-treated 1.5 mL microtubes by RP-HPLC method; assay type: physicochemical; conditions: buffer, pH 7.4, 1 h
[22] = Chemical stability of the compound in pH 7.4 phosphate buffered saline at 200 uM incubated for 5 to 6 hrs in 96-well Primaria plates by RP-HPLC method; assay type: physicochemical; conditions: buffer, pH 7.4, 200 µM
[23] = Chemical stability of the compound in pH 7.4 phosphate buffered saline at 200 uM incubated for >= 1 hr in 1.5 mL microtubes by RP-HPLC method; assay type: physicochemical; conditions: buffer, pH 7.4, 1 h
[24] = target: T2, Histamine H4 receptor
[25] = target: T2, Histamine H4 receptor; assay: Inhibition of UR-DEBa242 binding to human recombinant NLuc/GPCR-fused H4R expressed in HEK293T cells measured after 30 mins by furimazine substrate based BRET assay; assay type: cell-based, HEK-293T

T1 sequence (Q9Y5N1 whole entry, the tested form may be a part): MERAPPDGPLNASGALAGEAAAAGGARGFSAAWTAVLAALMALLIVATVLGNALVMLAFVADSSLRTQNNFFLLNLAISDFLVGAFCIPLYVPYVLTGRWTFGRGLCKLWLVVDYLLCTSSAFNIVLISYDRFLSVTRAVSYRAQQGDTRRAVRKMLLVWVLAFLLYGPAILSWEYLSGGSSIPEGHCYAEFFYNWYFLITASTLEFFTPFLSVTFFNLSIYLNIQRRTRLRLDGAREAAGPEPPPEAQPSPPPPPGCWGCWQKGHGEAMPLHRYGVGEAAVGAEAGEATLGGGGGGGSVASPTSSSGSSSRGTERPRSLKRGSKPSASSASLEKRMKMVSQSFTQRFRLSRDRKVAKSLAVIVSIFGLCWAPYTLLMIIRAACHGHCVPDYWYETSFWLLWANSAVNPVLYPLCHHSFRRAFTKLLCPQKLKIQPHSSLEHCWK
Chain of Histamine H1 receptor (P35367 whole entry): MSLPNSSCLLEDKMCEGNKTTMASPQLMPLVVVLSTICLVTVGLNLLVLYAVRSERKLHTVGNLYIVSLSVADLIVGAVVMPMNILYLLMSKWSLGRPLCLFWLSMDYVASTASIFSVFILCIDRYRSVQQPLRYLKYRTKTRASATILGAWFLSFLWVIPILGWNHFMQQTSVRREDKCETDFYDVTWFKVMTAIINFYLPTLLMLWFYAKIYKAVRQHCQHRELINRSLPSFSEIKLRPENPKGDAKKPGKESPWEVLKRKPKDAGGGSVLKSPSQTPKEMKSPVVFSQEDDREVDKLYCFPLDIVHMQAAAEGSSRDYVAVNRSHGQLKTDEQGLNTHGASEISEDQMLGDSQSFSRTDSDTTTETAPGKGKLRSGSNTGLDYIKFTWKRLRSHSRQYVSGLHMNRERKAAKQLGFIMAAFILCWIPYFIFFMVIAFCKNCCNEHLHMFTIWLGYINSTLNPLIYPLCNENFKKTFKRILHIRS

SMILES: CC(C)(C)CNc1nccc(N2CCc3nc[nH]c3C2)n1
Ki [2]: 0.537 nM
Ki [3]: 3.16 nM

SMILES: S=C(NC1CCCCC1)N1CCC(c2cnc[nH]2)CC1 [THIOPERAMIDE]
Ki [8]: 66.1 nM
Ki [9]: 79.4 nM
EC50 [10]: 28.2 nM

SMILES: Cc1cc(/C=C/C=C/c2ccc(N(C)C)cc2)cc(C)[n+]1CCCCc1c[nH]cn1.O=C(O)C(F)(F)F.O=C([O-])C(F)(F)F
Stability [14]: Stable
Ki [1]: 2.51 nM
Ki [11]: > 4790 nM
Drug uptake [15]: Active
Kd ([16]; read-out: Kd): 2.54 to 6.86 nM
Kd ([16]; read-out: pKd (converted)): 4.68 nM
K [17]: 1.06e+07 M⁻¹ s⁻¹
K [18]: 2.79 min⁻¹
T1/2 [19]: 15 s
EC50 [20]: 1.7 nM
Stability [21]: Unstable
Stability [22]: Stable
Kd ([13]; read-out: Kd): 1.35 to 1.94 nM
Kd ([13]; read-out: pKd (converted)): 1.66 nM
Stability [23]: Unstable

SMILES: Cc1cc(/C=C/C=C/c2ccc(N(C)C)cc2)cc(C)[n+]1CCCc1c[nH]cn1
Ki [1]: 11.7 nM

SMILES: NC(=NCc1ccc(Cl)cc1)SCCCc1cnc[nH]1 [CLOBENPROPIT]
Ki [8]: 123 nM
Ki [24]: 39.8 nM
Ki [9]: 158 nM
Ki [25]: 77.6 nM

SMILES: Cc1cc(/C=C/C=C/c2ccc(N(C)C)cc2)cc(C)[n+]1CCCNCCc1c[nH]cn1
Ki [1]: 13.5 nM
Ki [4]: 933 nM
Ratio Ki [5]: 69.2

SMILES: NCCCCc1c[nH]cn1
Ratio Ki [5]: 2.95

The remaining lines, values ahead:

Ki [1]: 457 nM
SMILES: Cc1cc(/C=C/C=C/c2ccc(N(C)C)cc2)cc(C)[n+]1CCCN1CCc2nc[nH]c2C1

Ki [1]: 501 nM
Ki [4]: 1820 nM
SMILES: Cc1cc(OCCCNC(=O)CCCCCNC(=O)COc2ccc(/C=C/C3=[N+]4C(=Cc5ccc(-c6ccc[nH]6)n5[B-]4(F)F)C=C3)cc2)ccc1-c1nc2c(C)c(F)ccc2[nH]1

Ratio Ki [5]: 17
Ki [6]: 631 nM
Ki [7]: 37.2 nM
SMILES: NCCCCCc1c[nH]cn1

Ki [1]: 0.912 nM
Ki [11]: > 4790 nM
pK [12]: 8.71
Kd ([13]; read-out: Kd): 0.97 nM
Kd ([13]; read-out: pKd (converted)): 1.15 nM
SMILES: Cc1cc(/C=C/C=C/c2ccc(N(C)C)cc2)cc(C)[n+]1CCCCCc1c[nH]cn1

Ki [1]: 20400 nM
Ki [4]: 28200 nM
SMILES: Cc1cc(OCCC[n+]2c(C)cc(/C=C/c3cc4c5c(c3)CCCN5CCC4)cc2C)ccc1-c1nc2c(C)c(F)ccc2[nH]1

Ki [1]: 1620 nM
SMILES: Cc1cc(OCCC[n+]2c(C)cc(/C=C/C=C/c3ccc(N(C)C)cc3)cc2C)ccc1-c1nc2c(C)c(F)ccc2[nH]1

Ratio Ki [5]: 0.34
Ki [7]: 93.3 nM
SMILES: NCCCc1c[nH]cn1

Ki [1]: 2400 nM
SMILES: Cc1cc(OCCCNC(=O)CCCCCN2\C(=C/C=C/C=C/C3=[N+](CCCCS(=O)(=O)[O-])c4ccccc4C3(C)C)C(C)(C)c3ccccc32)ccc1-c1nc2c(C)c(F)ccc2[nH]1

Ki [1]: 851 nM
Ki [4]: 1950 nM
Ratio Ki [5]: 2.29
SMILES: Cc1cc(/C=C/C=C/c2ccc(N(C)C)cc2)cc(C)[n+]1CCc1c[nH]cn1
